Laboratory results as given in US9234006B2, “Compounds” (Novacta Biosystems Limited, priority 2011, dated 2016).
Where a name gives a salt, the structure may show the parent alone. Where a SMILES comes first, the peptide text is derived from it. Bridges are numbered along the chain shown (N, C = ends). [ ]: non-standard residue; d: D form. The star is where a group is joined. ξ: configuration not given here. ξβ3hGly(cHex) = NC(CC(=O)*)C1CCCCC1; Thr(3ξ) = CC(O)[C@H](N)C(=O)O; Dab = NCC[C@H](N)C(=O)O; βAla = NCCC(=O)O

Experiments:
[1] = test system: K. pneumoniae NCTC7427; test: MIC susceptibility testing, broth microdilution in CaMHB; type: cell-based, Klebsiella pneumoniae
How it was run: (§1)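 Colonies from fresh MHA grown overnight in CaMHB at 37° C, 250 rpm for 18-20 hours, diluted 100-fold and regrown to OD600 0.2-0.3 […]. Actively growing culture diluted 100-fold in fresh medium as inoculum; assays run in duplicate.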

[2] = test system: K. pneumoniae NCTC8172; test: as above; type: cell-based, Klebsiella pneumoniae
How it was run: as §1

[3] = test system: K. pneumoniae ATCC 4352; test: as above; type: cell-based, Klebsiella pneumoniae
How it was run: as §1

[4] = test system: K. pneumoniae ATCCBAA-1706; test: as above; type: cell-based, Klebsiella pneumoniae; details: Table 4
How it was run: as §1

[5] = test system: P. aeruginosa ATCCCRM-9027; test: as above; type: cell-based, Pseudomonas aeruginosa
How it was run: as §1

[6] = test system: P. aeruginosa ATCC27853; test: as above; type: cell-based, Pseudomonas aeruginosa
How it was run: as §1

[7] = test system: P. aeruginosa ATCC 9721; test: as above; type: cell-based, Pseudomonas aeruginosa
How it was run: as §1

[8] = test system: P. aeruginosa ATCC10145; test: as above; type: cell-based, Pseudomonas aeruginosa
How it was run: as §1

[9] = test system: E. coli NCTC9001; test: as above; type: cell-based, Escherichia coli
How it was run: as §1

[10] = test system: E. coli ATCC700928; test: as above; type: cell-based, Escherichia coli
How it was run: as §1

[11] = test system: E. coli NCTC12900; test: as above; type: cell-based, Escherichia coli
How it was run: as §1

[12] = test system: E. coli ATCC25922; test: as above; type: cell-based, Escherichia coli
How it was run: as §1

[13] = Pharmacokinetic and urinary clearance studies in rats; type: in vivo; details: male, Sprague Dawley, rat, in vivo, iv, 1 mg/kg
Description: Drug solutions were prepared at 4 mg/mL in Normal Saline and the pH adjusted to 6-7 by adding the appropriate volume of 0.1 M H2SO4 or 4.2% NaHCO3. The solutions were filter-sterilized and stored at −80° C. before use. On the day of the experiment, drug solutions were diluted to 1 mg/mL with sterile Normal Saline.
Groups of 3 male Sprague Dawley rats were acclimatised for a minimum of 4 days before the study. Rats were anesthetized using isofluorane and a cannula was inserted into the jugular vein. One day after surgery, rats were dosed with an intravenous bolus injection of the solution at 1 mg/kg through the cannula, followed by washing with Normal Saline. Blood was collected manually through the cannula prior to administration of the compound and at 0.08, 0.25, 0.5, 1, 3, 6, 8 and 24 h thereafter. Plasma was harvested by centrifugation immediately after blood collection. Twenty-four hour urine samples were collected prior to and after administration of the compound in 0-4 h, 4-6 h, and 6-24 h intervals. Plasma and urine samples were frozen at −20° C.
Determination of the plasma and urine concentrations of the drug was performed by Liquid Chromatography Mass Spectrometry (LC-MS/MS). Before analysis the plasma and urine samples were prepared as follows. Plasma samples were thawed on the day of analysis and mixed with 3 volumes of acetonitrile containing 0.1% (v/v) formic acid and 100 ng/mL of internal standard. After centrifugation, supernatants were transferred to a 96-well plate and diluted 1:1 with water ready for analysis by LC-MS/MS. Urine samples were purified by solid-phase extraction (SPE) on Oasis HLB cartridges (Waters, UK) eluting with 100% methanol. An aliquot was transferred to a 96 well plate and diluted 1:1 with water before addition of internal standard solution, ready for analysis by LC-MS/MS.
The pharmacokinetic parameters were determined by non-compartmental analysis using WinNonLin v5.3. The urinary recovery was recorded as the percentage of intact drug recovered in the urine for the first 24 h after injection.

[14] = test system: A. baumannii NCTC7844; test: MIC susceptibility testing, broth microdilution in CaMHB; type: cell-based, Acinetobacter baumannii
How it was run: as §1

[15] = test system: A. baumannii ATCC19606; test: as above; type: cell-based, Acinetobacter baumannii; details: Table 4
How it was run: as §1

[16] = test system: A. baumannii ATCCBAA-747; test: as above; type: cell-based, Acinetobacter baumannii
How it was run: as §1

[17] = test system: A. baumannii NCTC13423; test: as above; type: cell-based, Acinetobacter baumannii
How it was run: as §1

[18] = set-up: species or system rats; details: rat, in vivo, 8 mg/kg
Description: Colistin and the example compounds were prepared in saline. Compounds were introduced via the jugular canula twice a day 7 hours apart for seven days. […] The dose regimen is set out in Table 8 below.

[19] = K. pneumoniae ATCC 4352, Table 4
[20] = P. aeruginosa ATCCCRM-9027, Table 4
[21] = P. aeruginosa ATCC 9721, Table 4
[22] = Table 4A, different batches of cation-adjusted Muller-Hinton broth

Compound | MIC ([1]; Table 4) | MIC ([2]; Table 4) | MIC [3, 19] | MIC [4] | MIC [5, 20] | MIC ([6]; Table 4) | MIC [7, 21] | MIC ([8]; Table 4) | MIC ([10]; Table 4) | MIC ([11]; Table 4) | MIC ([12]; Table 4) | MIC ([14]; Table 4) | MIC [15] | MIC ([16]; Table 4) | MIC ([17]; Table 4) | further results
CC(C)C[C@@H]1NC(=O)[C@@H](Cc2ccccc2)NC(=O)[C@H](CCN)NC(=O)[C@@H](NC(=O)[C@H](CCN)NC(=O)[C@@H](NC(=O)CCN)C(C)O)CCNC(=O)[C@H](C(C)O)NC(=O)[C@H](CCN)NC(=O)[C@H](CCN)NC1=O (some centres unmarked) [Example 4, 3-Aminopropanoyl Polymyxin B Nonapeptide, Sulphate Salt] (H-[βAla][Thr(3ξ)][Dab][Dab][Dab][dF]L[Dab][Dab][Thr(3ξ)]; lactam 4-C) | 0.06 micrograms/mL | 2 micrograms/mL | 0.125 micrograms/mL | 0.25 micrograms/mL | 0.25 micrograms/mL | 0.125 micrograms/mL | 0.25 micrograms/mL | 0.5 micrograms/mL | 0.06 micrograms/mL | 1 micrograms/mL | 2 micrograms/mL | 4 micrograms/mL | 1 micrograms/mL | 1 micrograms/mL | 1 micrograms/mL | MIC ([9]; Table 4): 0.25 micrograms/mL; AUC(0-inf) [13]: 2030 ng·h/mL; Cmax [13]: 2520 ng/mL; Vd [13]: 0.69 L/kg; clearance [13]: 8.2 mL/min/kg; half-life [13]: 1.33 h
CC(C)C[C@@H]1NC(=O)[C@@H](Cc2ccccc2)NC(=O)[C@H](CCN)NC(=O)[C@@H](NC(=O)[C@H](CCN)NC(=O)[C@@H](NC(=O)CC(N)C2CCCCC2)C(C)O)CCNC(=O)[C@H](C(C)O)NC(=O)[C@H](CCN)NC(=O)[C@H](CCN)NC1=O (stereo partly drawn) [Example 14, [3(R,S)-3-Amino-3-cyclohexanepropanoyl] Polymyxin B Nonapeptide, Sulphate Salt] ({ξβ3hGly(cHex)}-[Thr(3ξ)][Dab][Dab][Dab][dF]L[Dab][Dab][Thr(3ξ)]; lactam 3-C) | 0.25 micrograms/mL | 1 micrograms/mL | 1 micrograms/mL | 0.25 micrograms/mL | 0.25 micrograms/mL | 0.5 micrograms/mL | 0.25 micrograms/mL | 0.25 micrograms/mL | 0.25 micrograms/mL | 0.5 micrograms/mL | 0.5 micrograms/mL | 0.5 micrograms/mL | 0.5 micrograms/mL | 0.5 micrograms/mL | 0.06 micrograms/mL | MIC [1, 22]: 0.5 micrograms/mL; MIC [2, 22]: >32 micrograms/mL; MIC ([3]; K. pneumoniae ATCC4352, Table 4A, different batches of cation-adjusted Muller-Hinton broth): 0.5 micrograms/mL; MIC ([5]; P. aeruginosa AATCCRM 9027, Table 4A, different batches of cation-adjusted Muller-Hinton broth): 0.125 micrograms/mL; MIC [6, 22]: 0.25 micrograms/mL; MIC ([7]; P. aeruginosa ATCC9721, Table 4A, different batches of cation-adjusted Muller-Hinton broth): 0.25 micrograms/mL; MIC [8, 22]: 0.5 micrograms/mL; MIC [9, 22]: 4 micrograms/mL; MIC [10, 22]: 2 micrograms/mL; MIC [11, 22]: 4 micrograms/mL; MIC [12, 22]: 2 micrograms/mL; levels of the renal biomarker NAG in urine compared to Colistin at the same dose regimen [18]: significantly reduced levels; levels of the renal biomarker albumin in urine compared to Colistin at the same dose regimen [18]: significantly reduced levels; levels of the renal biomarker cystatin C in urine compared to Colistin at the same dose regimen [18]: significantly reduced levels; MIC [14, 22]: 0.5 micrograms/mL; MIC [16, 22]: 0.5 micrograms/mL; MIC [17, 22]: 0.125 micrograms/mL
